Measured values as given in ChEMBL document CHEMBL2074038 (J Pharmacol Exp Ther, 2003).

Target: ATP-dependent translocase ABCB1 (Homo sapiens, UniProt P08183)
Assay: TP_TRANSPORTER: transepithelial transport in MDR1-expressing LLC-PK1 cells
Assay type: functional, cell-based
Conditions: pig

Chain of ATP-dependent translocase ABCB1 (P08183 whole entry): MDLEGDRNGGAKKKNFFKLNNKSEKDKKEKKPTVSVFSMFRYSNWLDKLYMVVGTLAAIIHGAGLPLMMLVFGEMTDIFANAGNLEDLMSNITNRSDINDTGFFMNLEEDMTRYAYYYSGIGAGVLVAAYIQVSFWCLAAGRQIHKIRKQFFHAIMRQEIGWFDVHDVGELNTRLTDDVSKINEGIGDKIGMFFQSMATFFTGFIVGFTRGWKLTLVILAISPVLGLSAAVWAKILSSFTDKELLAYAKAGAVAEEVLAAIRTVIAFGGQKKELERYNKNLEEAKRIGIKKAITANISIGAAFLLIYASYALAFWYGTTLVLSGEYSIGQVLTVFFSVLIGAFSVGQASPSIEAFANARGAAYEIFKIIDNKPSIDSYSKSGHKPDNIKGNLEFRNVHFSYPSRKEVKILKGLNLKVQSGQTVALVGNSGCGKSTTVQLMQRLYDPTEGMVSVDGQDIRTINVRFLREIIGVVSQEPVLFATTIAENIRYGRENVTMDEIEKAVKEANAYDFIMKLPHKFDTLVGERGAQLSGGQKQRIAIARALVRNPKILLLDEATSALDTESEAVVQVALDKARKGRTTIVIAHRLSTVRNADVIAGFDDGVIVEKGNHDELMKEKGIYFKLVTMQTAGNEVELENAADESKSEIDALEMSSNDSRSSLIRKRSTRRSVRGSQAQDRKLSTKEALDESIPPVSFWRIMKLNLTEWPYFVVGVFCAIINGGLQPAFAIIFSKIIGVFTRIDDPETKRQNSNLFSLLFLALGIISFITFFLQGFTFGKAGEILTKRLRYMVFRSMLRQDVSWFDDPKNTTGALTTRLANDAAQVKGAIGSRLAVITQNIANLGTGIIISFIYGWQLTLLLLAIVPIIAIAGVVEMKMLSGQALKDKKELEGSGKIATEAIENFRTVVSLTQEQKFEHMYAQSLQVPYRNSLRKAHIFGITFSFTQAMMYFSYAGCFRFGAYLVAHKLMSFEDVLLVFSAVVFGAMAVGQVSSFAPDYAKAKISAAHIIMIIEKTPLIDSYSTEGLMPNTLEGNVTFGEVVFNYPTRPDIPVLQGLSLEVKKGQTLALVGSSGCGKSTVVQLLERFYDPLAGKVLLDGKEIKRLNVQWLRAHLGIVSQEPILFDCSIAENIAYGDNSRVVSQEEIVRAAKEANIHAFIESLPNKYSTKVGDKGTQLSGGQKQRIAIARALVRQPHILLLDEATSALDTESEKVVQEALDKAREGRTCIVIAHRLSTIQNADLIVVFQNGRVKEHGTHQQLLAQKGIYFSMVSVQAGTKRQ

Compound	Activity
CCn1nc(Cc2ccccc2)cc1C1CCN(Cc2ccc(C3(N(C)[C@@H](C(=O)O)C(C)C)CCCC3)cc2F)CC1	substrate [+]
CC[C@]1(O)C[C@@H]2CN(CCc3c([nH]c4ccccc34)[C@@](C(=O)OC)(c3cc4c(cc3OC)N(C)[C@H]3[C@@](O)(C(=O)OC)[C@H](OC(C)=O)[C@]5(CC)C=CCN6CC[C@]43[C@@H]65)C2)C1 [VINBLASTINE]	substrate [+]
